Patent US20030040095A1, “Method for the production of pharmaceutically active recombinant proteins” (priority 2001, published 2003)

Assays:
Format in all cases: cell-based
[1] = tested on: recombinant CHO cell line; test: tc-uPA activity in culture of recombinant CHO cells, chromogenic assay (Pefachrome UK); settings: for Activity of tc-uPA: 1 L Spinner-flask culture, 37° C., 5 days; for Activity on the chromogenic substrate: average of four fermentations
Experimental: (§1) At first, the optimal conditions related to butyrate concentration and temperature in a laboratory scale were determined. Preliminary experiments aimed at optimizing the Na-butyrate concentration were performed in a 1 L culture of the recombinant CHO cell line (1×10^6 cells/ml), in order to achieve the best tc-uPA (HMW and LMW) production and the higher cell viability after 5 days of cultivation in spinner-flasks.
(§2) In table 1 are reported the cell viability and the uPA yield after 5 days cultivation in 1 L Spinner-flask culture at 37° C. and at different Na-butyrate concentrations. uPA activity was followed by a chromogenic assay using the Pefachrome® UK (54-46) (Pentapharm, LTD, Basel, Switzerland) as chromogenic substrate, according to the manufacturer's instructions; the cell viability was followed every day and measured microscopically after Trypan blue dye-exclusion method, as described in Doyle et al. A, Griffiths, J B and Newell, D G (Eds.) (1994), in “Cell & Tissue Culture: Laboratory Procedures”. John Wiley & Sons. New York.
(§3) A second set of experiments was performed at 1.2 mM butyrate, in a 5-days fermentation to determine the optimal temperature in a 2 L culture (1.5-2×10^6 cells/ml) of the recombinant CHO cell line in bioreactor.
When the cellular density reached values of about 2×10^6 living cells/ml, the cells were separated from the exhausted medium by tangential filtration (or centrifugation). Cells were then resuspended in the bioreactor in the same original volume of fresh medium CHOMaster® with the addition of sodium butyrate to achieve a final concentration of 1.2 mM.
The production of active u-PA (tc-UPA HMW and LMW) was monitored by a chromogenic test on a specific substrate, Pefachrome® UK. A progressive increase of the activity was observed up to maximal values as high as 7000 IU/ml, achieved after 4-5 days of fermentation. At this point the cells were harvested and subsequently discarded and the exhausted culture medium, containing tc-uPA, was further processed for purification.

[2] = tested on: recombinant CHO cell line; test: Cell viability of recombinant CHO culture, Trypan blue dye-exclusion; settings: 1.2 mM butyrate, 32° C., after 12 days, 2 L bioreactor
[3] = tested on: recombinant CHO cell line; test: as above
Experimental: as §1, §2, §3

[4] = tested on: recombinant CHO cell line; test: tc-uPA activity in culture of recombinant CHO cells, chromogenic assay (Pefachrome UK); settings: 1.2 mM butyrate, 32° C., after 12 days, 2 L bioreactor

CCCC(=O)[O-].[Na+] [Na-Butyrate, sodium butyrate]
Activity of tc-uPA ([1]; 0.6 mM Na-Butyrate): 526 IU/ml
Activity of tc-uPA ([1]; 1.2 mM Na-Butyrate): 959 IU/ml
Activity of tc-uPA (5 days cultivation) ([1]; 1.2 mM Na-Butyrate, 32° C., 2 L bioreactor): 800 IU/ml
Activity of tc-uPA (5 days cultivation) ([1]; 1.2 mM Na-Butyrate, 34° C., 2 L bioreactor): 5043 IU/ml
Activity of tc-uPA (5 days cultivation) ([1]; 1.2 mM Na-Butyrate, 37° C. (control), 2 L bioreactor): 1830 IU/ml
maximal activity on Pefachrome UK ([1]; 1.2 mM sodium butyrate, 34° C., after 4-5 days of fermentation, 2 L bioreactor): ≤ 7000 IU/ml
Activity of tc-uPA ([1]; 2.5 mM Na-Butyrate): 361 IU/ml
Activity on the chromogenic substrate ([1]; 1 day after addition of 1.2 mM Na-butyrate, 34° C., 2 L bioreactor): 155 ± 23%
Activity on the chromogenic substrate ([1]; 2 days after addition of 1.2 mM Na-butyrate, 34° C., 2 L bioreactor): 662 ± 32%
Activity on the chromogenic substrate ([1]; 3 days after addition of 1.2 mM Na-butyrate, 34° C., 2 L bioreactor): 1995 ± 13%
Activity on the chromogenic substrate ([1]; 4 days after addition of 1.2 mM Na-butyrate, 34° C., 2 L bioreactor): 3170 ± 23%
Activity on the chromogenic substrate ([1]; 5 days after addition of 1.2 mM Na-butyrate, 34° C., 2 L bioreactor): 5043 ± 13%
Cell viability [2]: 63%
Cell viability ([3]; 0.6 mM Na-Butyrate, 1 L Spinner-flask culture, 37° C., 5 days): 83%
Cell viability ([3]; 1.2 mM Na-Butyrate, 1 L Spinner-flask culture, 37° C., 5 days): 76%
Cell viability ([3]; 1.2 mM Na-Butyrate, 32° C., 5 days, 2 L bioreactor): 84%
Cell viability ([3]; 1.2 mM Na-Butyrate, 34° C., 5 days, 2 L bioreactor): 67%
Cell viability ([3]; 1.2 mM Na-Butyrate, 37° C. (control), 5 days, 2 L bioreactor): 53%
Cell viability ([3]; 2.5 mM Na-Butyrate, 1 L Spinner-flask culture, 37° C., 5 days): 56%
Cell viability ([3]; 1 day after addition of 1.2 mM Na-butyrate, 34° C., 2 L bioreactor, average of four fermentations): 87 ± 6%
Cell viability ([3]; 2 days after addition of 1.2 mM Na-butyrate, 34° C., 2 L bioreactor, average of four fermentations): 81 ± 12%
Cell viability ([3]; 3 days after addition of 1.2 mM Na-butyrate, 34° C., 2 L bioreactor, average of four fermentations): 78 ± 15%
Cell viability ([3]; 4 days after addition of 1.2 mM Na-butyrate, 34° C., 2 L bioreactor, average of four fermentations): 72 ± 14%
Cell viability ([3]; 5 days after addition of 1.2 mM Na-butyrate, 34° C., 2 L bioreactor, average of four fermentations): 67 ± 10%
activity (tc-uPA) [4]: 3961 U/ml
